Laboratory results as given in ChEMBL document CHEMBL1201862, “PubChem BioAssay data set” (2004).
The source made the active and inactive calls.

Legend:
[1] = tested on: HEK293; test: inhibitors of LMP1-driven NF-kB reporter, dose response, cell-based, HEK293, luciferase, cherry-pick (AID 588343); type: functional; conditions: Homo sapiens
[2] = Luminescence Cell-Based Dose Retest to Confirm Inhibitors of Cancer Stem Cells. [Related pubchem assays (depositor defined):AID2717, AID2721]; type: functional; conditions: Homo sapiens
[3] = HepG2 cell cytotoxicity, dose response, cytotoxicity control for Shn3 inhibitor project, CellTiter-Glo, cherry-picked (AID 624134); type: functional, cell-based
[4] = Shn3 3'UTR reporter inhibitors, dose response, cell-based, Clone20 osteoblasts, firefly luciferase, cherry-picked (AID 624132); type: functional;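 note: firefly luciferase luminescence from reporter carrying the Shn3 3'UTR in osteoblasts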
[5] = target: T1, Carboxy-terminal domain RNA polymerase II polypeptide A small phosphatase 1 (Homo sapiens, UniProt Q9GZU7); test: inhibitors of CTDSP1, concentration-response testing, biochemical assay, absorbance-based, actives from ultra-high-throughput screening (AID 540297); type: functional
T1 sequence (Q9GZU7 whole entry): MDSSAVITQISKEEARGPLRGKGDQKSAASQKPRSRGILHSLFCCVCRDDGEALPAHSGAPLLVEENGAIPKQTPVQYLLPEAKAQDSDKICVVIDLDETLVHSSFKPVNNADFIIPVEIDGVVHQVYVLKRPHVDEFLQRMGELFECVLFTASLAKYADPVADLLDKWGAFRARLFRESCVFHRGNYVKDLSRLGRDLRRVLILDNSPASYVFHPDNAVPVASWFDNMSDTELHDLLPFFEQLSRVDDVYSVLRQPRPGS

[6] = cytotoxicity in HEK-293T cells, dose response, cytotoxicity control for TCR NF-kB inhibitor project, luminescence, T-cell screen hits (AID 489026); type: functional, cell-based;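 note: cells exposed to compound about 14 hours before the viability readout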
[7] = tested on: BJ; test: cytotoxicity toward BJ-TERT fibroblasts, dose response, cell-based, RAS-independent, luminescence (AID 1933); type: functional; conditions: Homo sapiens
[8] = tested on: BJ; test: cytotoxicity toward Ras-transformed BJeLR fibroblasts, dose response, cell-based, alamar blue fluorescence, cherrypicked samples (AID 2631); type: functional; conditions: Homo sapiens;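 note: confirmatory dose-response assay in RAS-dependent BJ fibroblasts engineered with TERT, LT and ST, with cytotoxicity read by fluorescence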
[9] = tested on: BJ; test: cytotoxicity toward BJ-TERT-LT-ST fibroblasts, dose response, cell-based, RAS-independent, luminescence (AID 1935); type: functional; conditions: Homo sapiens;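 note: BJ fibroblasts immortalized with TERT plus LT and ST oncogenes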
[10] = cytotoxicity toward DRD oncogenic fibroblasts, dose response, cell-based, non-viral oncogenic, luminescence (AID 1934); type: functional; conditions: Homo sapiens
[11] = tested on: BJ; test: cells; type: functional, cell-based; conditions: Homo sapiens
[12] = target: Beta-galactosidase (Escherichia coli, UniProt Q8VNN2); test: beta-galactosidase enzyme inhibitors and activators, dose response, artefact control for CCR6 antagonist project, biochemical, E. coli enzyme, set 3 (AID 504712); type: functional
Chain of Beta-galactosidase (Q8VNN2 whole entry): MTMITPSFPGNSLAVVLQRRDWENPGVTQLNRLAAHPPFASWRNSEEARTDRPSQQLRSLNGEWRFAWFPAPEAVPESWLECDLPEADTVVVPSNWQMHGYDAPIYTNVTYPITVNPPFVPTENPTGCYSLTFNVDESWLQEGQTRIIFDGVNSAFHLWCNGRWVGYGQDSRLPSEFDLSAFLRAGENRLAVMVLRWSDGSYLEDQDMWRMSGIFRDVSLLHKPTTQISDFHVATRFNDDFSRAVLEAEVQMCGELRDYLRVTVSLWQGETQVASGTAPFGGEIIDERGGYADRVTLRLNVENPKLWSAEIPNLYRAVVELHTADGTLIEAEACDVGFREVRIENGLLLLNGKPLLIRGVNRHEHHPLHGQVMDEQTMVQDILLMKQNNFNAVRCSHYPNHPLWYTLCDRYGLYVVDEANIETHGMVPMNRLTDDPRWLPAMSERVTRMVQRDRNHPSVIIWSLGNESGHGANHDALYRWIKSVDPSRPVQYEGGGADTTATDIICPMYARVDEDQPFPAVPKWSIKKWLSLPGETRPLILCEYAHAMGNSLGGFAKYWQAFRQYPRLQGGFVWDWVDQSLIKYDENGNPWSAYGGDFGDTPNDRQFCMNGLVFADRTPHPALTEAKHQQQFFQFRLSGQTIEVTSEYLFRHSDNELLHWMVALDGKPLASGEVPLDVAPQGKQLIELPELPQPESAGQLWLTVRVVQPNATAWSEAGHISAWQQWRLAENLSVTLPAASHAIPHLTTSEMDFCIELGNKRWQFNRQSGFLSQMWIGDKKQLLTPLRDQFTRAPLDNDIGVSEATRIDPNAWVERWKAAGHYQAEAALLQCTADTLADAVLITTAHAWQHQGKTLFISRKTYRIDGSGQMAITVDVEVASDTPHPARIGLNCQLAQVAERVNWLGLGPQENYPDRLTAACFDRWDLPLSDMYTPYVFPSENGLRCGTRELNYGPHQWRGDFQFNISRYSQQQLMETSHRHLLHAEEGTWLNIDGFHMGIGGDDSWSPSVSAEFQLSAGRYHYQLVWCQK

[13] = Luminescence Cell-Based Dose Confirmation HTS to Identify Inhibitors of Platelet Dense Granule Release. [Related pubchem assays: 1663 (Primary HTS), 1678 (Summary of Project)]; type: functional
[14] = target: Melanocortin receptor 4 (Homo sapiens, UniProt P32245); type: functional, cell-based;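 note: Cell-based assay with luminescence read-out, confirmatory dose-response testing for agonist activity of biased ligands at MC4R; human U2OS cells with tagged receptor and beta-arrestin; potency of agonists that increase receptor coupling to beta-arrestin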
Chain of Melanocortin receptor 4 (P32245 whole entry): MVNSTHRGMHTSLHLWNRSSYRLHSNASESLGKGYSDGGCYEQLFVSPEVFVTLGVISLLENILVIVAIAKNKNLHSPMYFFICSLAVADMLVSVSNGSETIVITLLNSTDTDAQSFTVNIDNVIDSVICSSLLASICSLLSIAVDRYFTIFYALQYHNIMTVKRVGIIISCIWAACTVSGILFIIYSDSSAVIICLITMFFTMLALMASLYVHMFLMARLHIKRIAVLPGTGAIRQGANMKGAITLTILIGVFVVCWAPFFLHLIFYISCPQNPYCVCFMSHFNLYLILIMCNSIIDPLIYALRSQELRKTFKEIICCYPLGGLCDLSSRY

[15] = microbe, parasite or virus in culture; type: functional; conditions: Mycobacterium tuberculosis
[16] = target: Luciferin 4-monooxygenase (Photinus pyralis, UniProt P08659); test: firefly luciferase enzyme inhibitors, dose response, biochemical, luminescence (AID 1891)
Chain of Luciferin 4-monooxygenase (P08659 whole entry, canonical isoform): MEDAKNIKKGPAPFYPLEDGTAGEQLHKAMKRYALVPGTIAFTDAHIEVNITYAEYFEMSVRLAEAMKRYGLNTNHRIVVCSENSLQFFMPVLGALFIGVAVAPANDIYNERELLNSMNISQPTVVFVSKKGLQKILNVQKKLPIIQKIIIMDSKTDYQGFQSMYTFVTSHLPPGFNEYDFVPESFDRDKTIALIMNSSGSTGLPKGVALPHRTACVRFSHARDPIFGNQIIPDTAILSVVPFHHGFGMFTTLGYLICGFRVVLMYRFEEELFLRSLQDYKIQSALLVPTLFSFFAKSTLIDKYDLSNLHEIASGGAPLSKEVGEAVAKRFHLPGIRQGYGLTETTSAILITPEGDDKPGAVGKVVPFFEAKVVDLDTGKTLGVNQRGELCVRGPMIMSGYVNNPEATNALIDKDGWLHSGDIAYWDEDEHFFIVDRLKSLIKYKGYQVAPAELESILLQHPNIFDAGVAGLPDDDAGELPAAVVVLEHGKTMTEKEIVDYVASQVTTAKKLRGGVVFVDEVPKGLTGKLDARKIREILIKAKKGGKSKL

[17] = target: Casein kinase I isoform alpha (Homo sapiens, UniProt P48729); type: functional
Chain of Casein kinase I isoform alpha (P48729 whole entry, canonical isoform): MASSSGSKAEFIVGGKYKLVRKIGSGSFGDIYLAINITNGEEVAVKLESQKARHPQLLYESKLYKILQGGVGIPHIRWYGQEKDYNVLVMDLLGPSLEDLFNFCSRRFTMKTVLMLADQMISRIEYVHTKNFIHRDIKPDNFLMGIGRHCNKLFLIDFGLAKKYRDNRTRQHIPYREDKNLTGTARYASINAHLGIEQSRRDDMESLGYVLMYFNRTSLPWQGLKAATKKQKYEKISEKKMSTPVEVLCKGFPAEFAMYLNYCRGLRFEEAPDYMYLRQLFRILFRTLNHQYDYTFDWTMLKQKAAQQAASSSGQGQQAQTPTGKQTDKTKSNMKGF

Structure (SMILES): C[C@@H]1CN([C@@H](C)CO)S(=O)(=O)c2ccc(/C=C/c3ccccc3)cc2O[C@@H]1CN(C)Cc1ccc(C(=O)O)cc1
- AC50 [1]: 35.4 µM (active)

Structure (SMILES): CC(C)C[C@@H](CO)N(Cc1ccccc1)S(=O)(=O)N(Cc1ccccc1)[C@H](CO)CC(C)C
- AC50 [2]: 5.76 µM (active)
- AC50 [3]: 21 µM (active)
- AC50 [4]: 10.1 µM (active)

Structure (SMILES): COc1cccc(C2c3c(-c4ccccc4)n[nH]c3C(=O)N2c2ccc(C(=O)O)cc2)c1 (stereo not drawn)
- IC50 [5]: 5.63 µM (active)

Structure (SMILES): CC(C)Oc1ccccc1C1CC(=O)Nc2cc3c(cc21)OCCO3 (stereo not drawn)
- IC50 [6]: > 80 µM (inactive)
- EC50 [7]: 1.36 µM (active)
- EC50 [8]: 0.181 µM (active)
- EC50 [9]: 0.709 µM (active)
- EC50 [10]: 0.676 µM (active)
- EC50 [11]: 8.62 µM (active)

Structure (SMILES): CCOc1ccc(C=NNc2ccc(S(=O)(=O)Nc3ccccc3C(=O)O)cc2[N+](=O)[O-])cc1OC
- IC50 [5]: 3.51 µM (active)
- IC50 [12]: > 66.6 µM (inactive)

Structure (SMILES): COc1cccc(CC2(CO)CCCN(Cc3[nH]c4ccc(C)cc4c3C)C2)c1 (stereo not drawn)
- EC50 [13]: > 112 µM (not active)
- EC50 [14]: > 89.2 µM (inactive)
- CC50 [15]: 39.3 µM (active)
- EC50 [16]: > 112 µM (not active)

Structure (SMILES): N#Cc1cnc(Cl)nc1N
- Ki [17]: 100 µM (active)
